Assay results taken from US10501438B2, “Aryl-substituted dihydroquinolinones, their preparation and their use as pharmaceuticals” (NEOMED Institute, priority 2015, dated 2019).

Experiments:
[1] = molecular target: BRD4(BD1) (Homo sapiens (Human), UniProt O60885); experiment: In vitro bromodomain inhibition assay (AlphaLISA); format: binding; details: His-tagged BRD4 BD1 200 nM, biotinylated H4-tetraacetyl peptide 200 nM
Protocol: a) In Vitro Bromodomain Inhibition Assay
To measure activity of bromodomain inhibitors, a His-epitope tagged BRD4 BD149-170 is purchased from BPS Bioscience. BRD4 binding and inhibition is assessed by monitoring the engagement of biotinylated H4-tetraacetyl peptide (H4K5/8/12/16; AnaSpec #64989-025) with the target using the AlphaLISA technology (Perkin-Elmer). Specifically, in a 384 well OptiPlate, BRD4(BD1) (200 nM final) is pre-incubated with either DMSO (final 1.0% DMSO) or a compound dilution series in DMSO. All reagents are diluted in assay buffer containing 50 mM HEPES (pH 7.4), 100 mM NaCl, 0.1% (w/v) BSA, and 0.05% (w/v) CHAPS. After a 30 min incubation at rt, H4 peptide is added (200 nM final) and the reaction is incubated an additional 30 min at rt. Alpha streptavidin donor beads and AlphaLISA nickel chelate acceptor beads are then added to a final concentration of 10 μg/mL each. After one hour, equilibration plates are read on an Envision instrument and IC50s calculated using a four parameter non-linear curve fit (results are shown in Table 2).

[2] = system: human C-Myc transcription in MV-4-11 cells; experiment: Transcription of human C-Myc in human leukemic MV-4-11 cells (QuantiGene 2.0); format: cell-based; details: Homo sapiens, MV4-11, 4 h, inhibition of C-Myc mRNA, 4 hours treatment
Protocol: b) Transcription of Human C-Myc in Human Leukemic MV-4-11 Cells:
The effect of compounds on transcription of human C-Myc gene is monitored in human B-myelomonocytic leukemia cell line MV-4-11 (from American Type Culture Collection (ATCC), Manassas, Va., USA) using QuantiGene 2.0 assay kit (Affymetrix, Santa Clara, Calif., USA).
Typically, 8,000 MV-4-11 cells are plated in sterile 96-well plates (Costar #3598 from Fisher Scientific Canada, Ottawa, Ontario, Canada) in Iscove's medium supplemented with 10% fetal bovine serum, glutamine (2 mM), and penicillin (100 I.U.) and streptomycin (100 μg/mL) (all from Wisent Inc., St. Bruno, Quebec, Canada). Compounds are dissolved in DMSO at 30 mM. A series of 1:3 dilutions are first made in DMSO, and further 1:100 dilutions are made in serum-containing cell culture media. The final concentration of DMSO is 0.1% in cell culture media. After cells are treated with various concentrations of test compound for 4 hours, cells are lysed using Quantigene 2.0 sample processing kit (#QS0100). C-Myc mRNA is detected using a QuantiGene 2.0 assay kit (#QS0009) with gene-specific probe to human C-Myc (#SA-50182) following the manufacturer's recommendations. Luminescene signals are read on Flexstation II microplate reader (Molecular Devices, Sunnyvale, Calif., USA).

Row | Structure (SMILES) | IC50 [1] | IC50 [2]
1 | Cc1cc(-c2cc3c(c(NC4CCOCC4)c2)NC(=O)CC3)cn(C)c1=O [Compound 18, 6-(1,5-dimethyl-6-oxo-3-pyridyl)-8-(tetrahydropyran-4-ylamino)-3,4-dihydro-1H-quinolin-2-one] | 420 nM | 790 nM
2 | Cc1cc(-c2cc3c(c(Nc4cccnc4)c2)NC(=O)CC3)cn(C)c1=O [Compound 11, 6-(1,5-dimethyl-6-oxo-3-pyridyl)-8-(3-pyridylamino)-3,4-dihydro-1H-quinolin-2-one] | 350 nM | 2120 nM
3 | Cc1cc(-c2cc3c(c(NC4CCCCC4)c2)NC(=O)CC3)cn(C)c1=O [Compound 6, 8-(cyclohexylamino)-6-(1,5-dimethyl-6-oxo-3-pyridyl)-3,4-dihydro-1H-quinolin-2-one] | 810 nM | 750 nM
4 | Cc1cc(-c2cc3c(c(Nc4ccccc4)c2)NC(=O)CC3)cn(C)c1=O [Compound 3, 8-anilino-6-(1,5-dimethyl-6-oxo-3-pyridyl)-3,4-dihydro-1H-quinolin-2-one] | 510 nM | 580 nM
5 | Cc1cc(-c2cc3c(c(CN4CCCCC4)c2)NC(=O)CC3)cn(C)c1=O [Compound 13, 6-(1,5-dimethyl-6-oxo-3-pyridyl)-8-(1-piperidylmethyl)-3,4-dihydro-1H-quinolin-2-one] | 1300 nM | 1580 nM
6 | Cc1cc(-c2cc3c(c(CNC4CCCC4)c2)NC(=O)CC3)cn(C)c1=O [Compound 19, 8-[(cyclopentylamino)methyl]-6-(1,5-dimethyl-6-oxo-3-pyridyl)-3,4-dihydro-1H-quinolin-2-one] | 700 nM | 900 nM
7 | Cc1cc(-c2cc3c(c(OCc4cocn4)c2)NC(=O)CC3)cn(C)c1=O [Compound 84, 6-(1,5-dimethyl-6-oxo-1,6-dihydropyridin-3-yl)-8-(oxazol-4-ylmethoxy)-3,4-dihydroquinolin-2(1H)-one] | – | 510 nM
8 | Cc1cc(-c2cc3c(c(OCC4CCOCC4)c2)NC(=O)CC3)cn(C)c1=O [Compound 72, 6-(1,5-dimethyl-6-oxo-1,6-dihydropyridin-3-yl)-8-((tetrahydro-2H-pyran-4-yl)methoxy)-3,4-dihydroquinolin-2(1H)-one] | – | > 6140 nM
9 | Cc1cc(-c2cc3c(cc2Cc2ccccc2)CCC(=O)N3)cn(C)c1=O [Compound 31, 6-benzyl-7-(1,5-dimethyl-6-oxo-1,6-dihydropyridin-3-yl)-3,4-dihydroquinolin-2(1H)-one] | – | 290 nM
10 | Cc1cc(-c2ccc3c(c2Cc2cccc(F)c2)CCC(=O)N3)cn(C)c1=O [Compound 86, 6-(1,5-dimethyl-6-oxo-1,6-dihydropyridin-3-yl)-5-(3-fluorobenzyl)-3,4-dihydroquinolin-2(1H)-one] | – | 370 nM

Compounds with a lower IC50 [2], results first:

Row | IC50 [1] | IC50 [2] | Structure (SMILES)
11 | 110 nM | 90 nM | Cc1cc(-c2cc3c(c(NCc4ccccn4)c2)NC(=O)CC3)cn(C)c1=O [Compound 12, 6-(1,5-dimethyl-6-oxo-3-pyridyl)-8-(2-pyridylmethylamino)-3,4-dihydro-1H-quinolin-2-one]
12 | 560 nM | 210 nM | Cc1cc(-c2cc3c(c(Cc4ccccc4)c2)N(C)C(=O)CC3)cn(C)c1=O [Compound 2, 8-benzyl-6-(1,5-dimethyl-6-oxo-3-pyridyl)-1-methyl-3,4-dihydroquinolin-2-one]
13 | 140 nM | 90 nM | Cc1cc(-c2ccc3c(c2Cc2ccccc2)CCC(=O)N3)cn(C)c1=O [Compound 7, 5-benzyl-6-(1,5-dimethyl-6-oxo-3-pyridyl)-3,4-dihydro-1H-quinolin-2-one]
14 | 280 nM | 90 nM | Cc1cc(-c2cc3c(c(NCc4ccccc4)c2)NC(=O)CC3)cn(C)c1=O [Compound 4, 8-(benzylamino)-6-(1,5-dimethyl-6-oxo-3-pyridyl)-3,4-dihydro-1H-quinolin-2-one]
15 | 350 nM | 190 nM | Cc1cc(-c2cc3c(c(N(C)c4ccccc4)c2)NC(=O)CC3)cn(C)c1=O [Compound 14, 6-(1,5-dimethyl-6-oxo-3-pyridyl)-8-(N-methylanilino)-3,4-dihydro-1H-quinolin-2-one]
16 | 270 nM | 260 nM | Cc1cc(-c2ccc3c(c2Cc2ccccc2)CCC(=O)N3C)cn(C)c1=O [Compound 9, 5-benzyl-6-(1,5-dimethyl-6-oxo-3-pyridyl)-1-methyl-3,4-dihydroquinolin-2-one]
17 | 410 nM | 160 nM | Cc1cc(-c2cc3c(c(Cc4ccccc4)c2)NC(=O)CC3)cn(C)c1=O [Compound 1, 8-benzyl-6-(1,5-dimethyl-6-oxo-3-pyridyl)-3,4-dihydro-1H-quinolin-2-one]
18 | 180 nM | 240 nM | Cc1cc(-c2cc3c(c(OCc4ccccc4)c2)NC(=O)CC3)cn(C)c1=O [Compound 17, 8-(benzyloxy)-6-(1,5-dimethyl-6-oxo-1,6-dihydropyridin-3-yl)-3,4-dihydroquinolin-2(1H)-one]
19 | 280 nM | 240 nM | Cc1cc(-c2cc3c(cc2Cc2ccccc2)NC(=O)CC3)cn(C)c1=O [Compound 8, 7-benzyl-6-(1,5-dimethyl-6-oxo-3-pyridyl)-3,4-dihydro-1H-quinolin-2-one]
20 | 480 nM | 250 nM | Cc1cc(-c2cc3c(cc2Cc2ccccc2)N(C)C(=O)CC3)cn(C)c1=O [Compound 10, 7-benzyl-6-(1,5-dimethyl-6-oxo-3-pyridyl)-1-methyl-3,4-dihydroquinolin-2-one]
21 | – | 280 nM | Cc1cc(-c2cc3c(c(OCc4ccccn4)c2)NC(=O)CC3)cn(C)c1=O [Compound 26, 6-(1,5-dimethyl-6-oxo-1,6-dihydropyridin-3-yl)-8-(pyridin-2-ylmethoxy)-3,4-dihydroquinolin-2(1H)-one]
